Values quoted from earlier work as cited in article PMC8380238, “Structure-based virtual screening of CYP1A1 inhibitors: towards rapid tier-one assessment of potential developmental toxicants” (Archives of Toxicology, 2021).
Counter-ions that a name gives are not always drawn.

Test system: human CYP1A1
Design: unit not given beside the values
Settings: ToxCast NVS_ADME_hCYP1A1; NA cells left out; ref ToxCast; cited from earlier work
In the case of COC(=O)c1c(Cl)c(Cl)c(C(=O)OC)c(Cl)c1Cl [Chlorthal-dimethyl], the AC50 is given as -0.9489.

Same assay, conditions: cited from earlier work
In the case of Oc1ccc(C(c2ccc(O)cc2)C(Cl)(Cl)Cl)cc1, the AC50 is given as 0.8687.
In the case of C=CCc1cc(S(=O)(=O)c2ccc(O)c(CC=C)c2)ccc1O, the AC50 is listed as 0.2892.
In the case of O=c1[nH]sc2ccccc12 [1,2-Benzisothiazolin-3-one], the AC50 is given as 0.7251.
For Nc1cccc2c(N)cccc12 [1,5-Naphthalenediamine], the AC50 is listed as 0.8388.
In the case of Oc1ccc2ccc3cccc4ccc1c2c34 [1-Hydroxypyrene], the AC50 is listed as 0.4188.
For Cc1cc(N=Nc2ccccc2C)ccc1N [2-Amino-5-azotoluene], the AC50 is listed as 0.8236.
For Sc1nc2ccccc2s1 [2-Mercaptobenzothiazole], the AC50 is listed as -0.7864.
In the case of COc1cc(-c2ccc(N)c(OC)c2)ccc1N [3,3'-Dimethoxybenzidine], the AC50 is listed as 0.5453.
In the case of Oc1ccc2c(c1)-c1ccccc1C2 [3-Hydroxyfluorene], the AC50 is given as 0.7484.
For CN(C)c1ccc(Cc2ccc(N(C)C)cc2)cc1 [4,4'-Methylenebis(N,N-dimethylaniline)], the AC50 is listed as 0.5763.
For CCCCCCCCn1sc(Cl)c(Cl)c1=O [4,5-Dichloro-2-octyl-3(2H)-isothiazolone], the AC50 is listed as 0.9038.
In the case of Oc1cc2ccccc2c2ccccc12 [9-Phenanthrol], the AC50 is given as 0.7409.
For CSC(C)(C)C=NO [Aldicarb oxime], the AC50 is given as 0.7517.
For CCNc1nc(Cl)nc(NC(C)C)n1 [Atrazine], the AC50 is listed as 0.9162.
For COP(=S)(OC)SCn1nnc2ccccc2c1=O [Azinphos-methyl], the AC50 is given as -0.4803.
For O=C(Nc1ccccc1)c1ccccc1I [Benodanil], the AC50 is listed as -1.884.
In the case of Nc1ccc(-c2ccc(N)cc2)cc1 [Benzidine], the AC50 is listed as 0.5505.
In the case of COc1ccc(-c2ccccc2)cc1NNC(=O)OC(C)C [Bifenazate], the AC50 is listed as -0.1841.
In the case of O=[N+]([O-])C(Br)(CO)CO [Bronopol], the AC50 is given as 0.9179.
In the case of CC(C)(O)c1coc(S(=O)(=O)NC(=O)Nc2c3c(cc4c2CCC4)CCC3)c1 [CP-456773], the AC50 is given as -1.144.
For CCCCN(CCCC)SN(C)C(=O)Oc1cccc2c1OC(C)(C)C2 [Carbosulfan], the AC50 is given as 0.7573.
In the case of CCOC(=O)C(Cl)Cc1cc(-n2nc(C)n(C(F)F)c2=O)c(F)cc1Cl (stereo not drawn) [Carfentrazone-ethyl], the AC50 is listed as 0.8125.
For CN(C)CCCN1c2ccccc2Sc2ccc(Cl)cc21 [Chlorpromazine hydrochloride], the AC50 is listed as 0.7565.
For C#CCOC(=O)[C@@H](C)Oc1ccc(Oc2ncc(Cl)cc2F)cc1 [Clodinafop-propargyl], the AC50 is listed as 0.4557.
For CCOP(=S)(OCC)Oc1ccc2c(C)c(Cl)c(=O)oc2c1 [Coumaphos], the AC50 is listed as -0.5619.
In the case of CC1COC(Cn2cncn2)(c2ccc(Oc3ccc(Cl)cc3)cc2Cl)O1 (stereo not drawn) [Difenoconazole], the AC50 is given as 0.1639.
For COc1ccc(C(=CC(=O)N2CCOCC2)c2ccc(Cl)cc2)cc1OC [Dimethomorph], the AC50 is listed as 0.8349.
In the case of Cc1[nH]cnc1C[C@H]1CCc2c(C)c3ccccc3n2C1=O.Cl [Fabesetron hydrochloride], the AC50 is listed as 0.583.
For CCOP(=O)(NC(C)C)Oc1ccc(SC)c(C)c1 (stereo not drawn) [Fenamiphos], the AC50 is given as 0.6838.
In the case of OC(c1ccc(Cl)cc1)(c1cncnc1)c1ccccc1Cl (stereo not drawn) [Fenarimol], the AC50 is listed as 0.89.
For N#CC(CCc1ccc(Cl)cc1)(Cn1cncn1)c1ccccc1 (stereo not drawn) [Fenbuconazole], the AC50 is given as -0.05845.
In the case of O=C(Nc1ccccc1)Nc1ccnc(Cl)c1 [Forchlorfenuron], the AC50 is listed as 0.9909.
For CN(C)c1ccc(C(=C2C=CC(=[N+](C)C)C=C2)c2ccc(N(C)C)cc2)cc1 [Gentian Violet], the AC50 is given as 0.2591.
For C=CCOC(Cn1ccnc1)c1ccc(Cl)cc1Cl (stereo not drawn) [Imazalil], the AC50 is given as 0.1501.
In the case of CC(C)NC(=O)N1CC(=O)N(c2cc(Cl)cc(Cl)c2)C1=O [Iprodione], the AC50 is given as 0.8242.
For CON(C)C(=O)Nc1ccc(Cl)c(Cl)c1 [Linuron], the AC50 is listed as 0.4776.
For CCOC(=O)CC(SP(=S)(OC)OC)C(=O)OCC (stereo not drawn) [Malathion], the AC50 is listed as 0.4737.
In the case of CC#Cc1cc(C)nc(Nc2ccccc2)n1 [Mepanipyrim], the AC50 is listed as -0.2464.
